According to publication PMC4071600, “Amino Alcohols from the Ascidian Pseudodistoma sp” (Marine Drugs, 2014):

Biological target: T1, Na^+/K^+-ATPase
T1 construct: gene ATP1A1; with Sodium/potassium-transporting ATPase subunit beta-1
Test: Na+/K+-ATPase inhibition assay (by reference)
Type: biochemical
Description: Na+/K+-ATPase inhibition assay (by reference) on Na^+/K^+-ATPase

`CCCCCCCCC/C=C/[C@H](O)[C@H](C)N` [compound 1, (E)-2-aminotetradec-4-en-3-ol] and `CCCCCCCC/C=C/C[C@H](O)[C@H](C)N` [compound 2, Pseudoaminol B] are within 1.5-fold of each other in IC50: 62 µM for the first, 78.4 µM for the second.

Going from `CCCCCCC/C=C/C=C/[C@H](O)[C@H](C)N` [compound 3, Pseudoaminol C] to `CC/C=C\C/C=C\CC/C=C/C=C/[C@H](O)[C@H](C)N` [compound 5, Pseudoaminol E], the IC50 falls from > 200 µM to 101 µM.

`CCCCCCCC/C=C/C[C@H](O)CN` [compound 4, Pseudoaminol D] and `CCCCCCCCCCC[C@H](O)CN` [compound 13, Compound 13] are within 1.5-fold of each other in IC50: 190 µM for the first, 130 µM for the second.

Going from `CCCCCCCCC/C=C/[C@H](O)[C@H](C)NCC(=O)O` [compound 6, Pseudoaminol F] to `CCCCCCCCCCC[C@H](O)[C@H](C)NC(C)=O` [compound 10, Compound 10], the IC50 falls from > 200 µM to 118 µM.

`CC/C=C\C/C=C\CC/C=C/C=C/[C@H](O)[C@H](C)NCC(=O)O` [compound 7, Pseudoaminol G] and `CCCCCCCCCCC[C@H](O)CNC(C)=O` [compound 14, Compound 14] cannot be ordered by IC50: > 200 µM for the first, > 200 µM for the second.

Compared with `CCCCCCCCC/C=C/[C@@H]1OC(=O)N[C@H]1C` [compound 8, Compound 8], `CCCCCCCCCCC[C@H](O)[C@H](C)N` [compound 9, Compound 9] is 1.5-fold lower in IC50: 71.4 µM for the first, 46.8 µM for the second.

Molecule `CCCCCCCCCCC[C@H](OC(=O)c1ccccc1)[C@H](C)NC(=O)c1ccccc1` [compound 12, Compound 12] has an IC50 of 108 µM.
